Experimental findings from BindingDB's records for patent US12552758 (Neophore, 2026) are described below.

Assay [1] addresses T1, DNA mismatch repair protein Mlh1 (UniProt P40692).
T1 sequence (P40692 whole entry): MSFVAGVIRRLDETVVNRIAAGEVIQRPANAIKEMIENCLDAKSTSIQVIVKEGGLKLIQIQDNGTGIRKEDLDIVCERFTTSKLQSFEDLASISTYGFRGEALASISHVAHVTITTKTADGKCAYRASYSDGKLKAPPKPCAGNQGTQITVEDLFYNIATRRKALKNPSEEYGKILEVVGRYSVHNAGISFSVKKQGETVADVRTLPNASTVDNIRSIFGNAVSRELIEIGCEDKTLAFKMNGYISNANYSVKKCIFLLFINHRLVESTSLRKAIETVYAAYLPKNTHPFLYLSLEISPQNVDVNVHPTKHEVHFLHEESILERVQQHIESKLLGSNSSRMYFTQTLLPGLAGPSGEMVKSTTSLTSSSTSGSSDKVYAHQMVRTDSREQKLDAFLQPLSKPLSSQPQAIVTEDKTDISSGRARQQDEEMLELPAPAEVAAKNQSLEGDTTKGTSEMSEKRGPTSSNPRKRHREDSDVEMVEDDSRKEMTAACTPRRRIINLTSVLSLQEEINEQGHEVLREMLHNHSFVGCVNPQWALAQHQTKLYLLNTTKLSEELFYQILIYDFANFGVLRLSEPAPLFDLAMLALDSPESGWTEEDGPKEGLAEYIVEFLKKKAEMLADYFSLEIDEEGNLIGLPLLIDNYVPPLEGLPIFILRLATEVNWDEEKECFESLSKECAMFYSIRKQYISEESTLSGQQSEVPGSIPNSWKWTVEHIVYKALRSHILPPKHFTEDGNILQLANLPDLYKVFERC
Briefly: Fluorescence Polarisation Assay for MLH1. On the procedure: 20 μL assay buffer was added to all wells in columns 1 and 24 (column 24 only for single point screening) using a MultiDrop Combi (ThermoFisher). Plates were centrifuged for 1 minute at 250×g and were incubated at room temperature for 30 minutes prior to the addition of 20 μL of 2×(10 nM) of 5-((5-(4-((2-(2,4-dihydroxy-5-isopropylbenzoyl)isoindolin-5-yl)methyl)piperazin-1-yl)pentyl)carbamoyl)-2-(6-(dimethylamino)-3-(dimethyliminio)-3H-xanthen-9-yl)benzoate (referred to hereinafter as “probe compound”) in assay buffer (prepared from a 100 μM DMSO stock) with a MultiDrop Combi (ThermoFisher). The final concentration of N-terminal MLH1 was 100 nM and the final concentration of probe compound was 5 nM.
(Fluorescence polarisation rises when a labelled molecule tumbles more slowly, as on binding a larger partner.)

Assay [2] addresses T2, Mismatch repair endonuclease PMS2 (UniProt P54278).
T2 sequence (P54278 whole entry): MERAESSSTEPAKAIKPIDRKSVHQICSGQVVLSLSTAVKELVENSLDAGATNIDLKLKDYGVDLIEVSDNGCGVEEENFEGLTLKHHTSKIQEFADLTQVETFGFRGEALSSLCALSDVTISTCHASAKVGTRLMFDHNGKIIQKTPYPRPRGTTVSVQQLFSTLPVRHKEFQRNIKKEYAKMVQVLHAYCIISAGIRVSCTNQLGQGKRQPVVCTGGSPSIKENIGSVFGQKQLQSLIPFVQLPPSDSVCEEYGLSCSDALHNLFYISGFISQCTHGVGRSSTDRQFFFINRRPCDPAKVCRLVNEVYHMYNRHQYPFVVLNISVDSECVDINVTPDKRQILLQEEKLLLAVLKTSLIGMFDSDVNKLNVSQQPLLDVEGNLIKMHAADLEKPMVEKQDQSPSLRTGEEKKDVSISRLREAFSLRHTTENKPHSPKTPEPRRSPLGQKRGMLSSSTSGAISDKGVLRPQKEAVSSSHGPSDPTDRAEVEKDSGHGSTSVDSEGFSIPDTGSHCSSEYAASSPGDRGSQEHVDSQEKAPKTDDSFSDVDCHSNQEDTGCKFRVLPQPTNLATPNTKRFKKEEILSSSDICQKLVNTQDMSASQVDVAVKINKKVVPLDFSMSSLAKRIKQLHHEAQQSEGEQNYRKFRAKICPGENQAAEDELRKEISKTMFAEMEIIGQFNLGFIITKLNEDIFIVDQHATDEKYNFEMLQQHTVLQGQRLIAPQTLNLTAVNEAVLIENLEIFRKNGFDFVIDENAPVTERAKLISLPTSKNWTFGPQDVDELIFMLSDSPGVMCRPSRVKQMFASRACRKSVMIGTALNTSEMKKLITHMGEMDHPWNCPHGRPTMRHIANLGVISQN
Briefly: Fluorescence Polarisation Assay for PMS2. On the procedure: 20 μL assay buffer was added to all wells in columns 1 and 24 (column 24 only for single point screening) using a MultiDrop Combi (ThermoFisher). Plates were centrifuged for 1 minute at 250×g and were incubated at room temperature for 30 minutes prior to the addition of 20 μL of 2×([…]) of 5-((5-(4-((2-(2,4-dihydroxy-5-isopropylbenzoyl)isoindolin-5-yl)methyl)piperazin-1-yl)pentyl)carbamoyl)-2-(6-(dimethylamino)-3-(dimethyliminio)-3H-xanthen-9-yl)benzoate (referred to hereinafter as “probe compound”) in assay buffer (prepared from a 100 μM DMSO stock) with a MultiDrop Combi (ThermoFisher). The final concentration of N-terminal PMS2 was 10 nM and the final concentration of probe compound was 5 nM.

As a reminder, the IC50 is the point on the concentration scale where inhibition reaches its midpoint.

The structures appear in SMILES notation.

In the case of `Cc1c(O)cc(O)c(C(=O)N2Cc3cccnc3C2)c1OCc1ccccc1` [US12552758, Example 30], the values for the IC50 in assay [1] and in assay [2] were above 10 µM and below 1 µM, respectively.

Take `Cc1c(O)cc(O)c(C(=O)N2Cc3cccc(Br)c3C2)c1OCc1ccccc1` [US12552758, Example 38]: the IC50 in assay [1] was above 10 µM; in assay [2], below 1 µM.
